Reference: patent publication US9216986B1, “Quinoline derivatives as PDE10A enzyme inhibitors” (H. Lundbeck A/S, priority 2011, dated 2015)

Each compound was assayed against PDE10A enzyme (Homo sapiens (Human), UniProt Q9Y233) (assay: PDE10A inhibition assay). Details: tritium labeled cAMP 5 nM.
Type: biochemical
Procedure: Active PDE10A enzyme is prepared in a number of ways for use in PDE assays (Loughney, K. et al. Gene 1999, 234, 109-117; Fujishige, K. et al. Eur J Biochem. 1999, 266, 1118-1127 and Soderling, S. et al. Proc. Natl. Acad. Sci. 1999, 96, 7071-7076). PDE10A can be expressed as full-length proteins or as truncated proteins, as long as they express the catalytic domain. PDE10A can be prepared in different cell types, for example insect cells or E. coli. An example of a method to obtain catalytically active PDE10A is as follows: The catalytic domain of human PDE10A (amino acids 440-779 from the sequence with accession number NP 006652) is amplified from total human brain total RNA by standard RT-PCR and is cloned into the BamH1 and Xho1 sites of the pET28a vector (Novagen). Expression in coli is performed according to standard protocols. Briefly, the expression plasmids are transformed into the BL21(DE3) E. coli strain, and 50 mL cultures inoculated with the cells allowed to grow to an OD600 of 0.4-0.6 before protein expression is induced with 0.5 mM IPTG. Following induction, the cells are incubated overnight at room temperature, after which the cells are collected by centrifugation. Cells expressing PDE10A are resuspended in 12 mL (50 mM TRIS-HCl-pH8.0, 1 mM MgCl2 and protease inhibitors). The cells are lysed by sonication, and after all cells are lysed, TritonX100 is added according to Novagen protocols.
A PDE10A assay may for example, be performed as follows: The assay is performed in 60 uL samples containing a fixed amount of the relevant PDE enzyme (sufficient to convert 20-25% of the cyclic nucleotide substrate), a buffer (50 mM HEPES7.6; 10 mM MgCl2; 0.02% Tween20), 0.1 mg/ml BSA, 225 pCi of ^3H-labelled cyclic nucleotide substrate, tritium labeled cAMP to a final concentration of 5 nM and varying amounts of inhibitors. Reactions are initiated by addition of the cyclic nucleotide substrate, and reactions are allowed to proceed for one hr at room temperature before being terminated through mixing with 15 uL 8 mg/mL yttrium silicate SPA beads (Amersham). The beads are allowed to settle for one hr in the dark before the plates are counted in a Wallac 1450 Microbeta counter. The measured signal can be converted to activity relative to an uninhibited control (100%) and IC50 values can be calculated using the XIfit extension to EXCEL.

Chain of PDE10A enzyme (Q9Y233 716-1055): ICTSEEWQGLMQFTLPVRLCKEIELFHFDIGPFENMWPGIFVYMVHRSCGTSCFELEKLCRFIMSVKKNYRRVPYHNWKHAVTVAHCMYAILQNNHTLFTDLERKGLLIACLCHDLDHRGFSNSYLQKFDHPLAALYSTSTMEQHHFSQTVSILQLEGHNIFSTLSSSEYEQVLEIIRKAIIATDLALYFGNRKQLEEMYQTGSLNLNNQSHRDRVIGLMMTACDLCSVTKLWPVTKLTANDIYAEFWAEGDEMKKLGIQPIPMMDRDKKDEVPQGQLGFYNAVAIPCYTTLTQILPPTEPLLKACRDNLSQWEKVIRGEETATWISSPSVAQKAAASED

IC50 [nM] | Compound
34 | COc1ccc(C)n2nc(CCc3ccc4cc(F)ccc4n3)nc12 [6-Fluoro-2-[2-(8-methoxy-5-methyl-[1,2,4]triazolo[1,5-a]pyridin-2-yl)-ethyl]-quinoline]
140 | Cc1cc(CCc2nc3cccc(C)n3n2)nc2ccccc12 [4-Methyl-2-[2-(5-methyl-[1,2,4]triazolo[1,5-a]pyridin-2-yl)-ethyl]-quinoline]
39 | Cc1ncc(C)n2nc(CCc3ccc4c(Cl)cc(Cl)cc4n3)nc12 [5,7-Dichloro-2-[2-(5,8-dimethyl-[1,2,4]triazolo[1,5-a]pyrazin-2-yl)-ethyl]-quinoline]
13 | Cc1ncc(C)n2nc(CCc3ccc4cc5c(cc4n3)OCO5)nc12 [6-[2-(5,8-Dimethyl-[1,2,4]triazolo[1,5-a]pyrazin-2-yl)-ethyl]-[1,3]dioxolo[4,5-g]quinoline]
550 | Cc1ncc(C)n2nc(/C=C/c3ccc4ccc(C(F)(F)F)cc4n3)nc12 [2-[(E)-2-(5,8-Dimethyl-[1,2,4]triazolo[1,5-a]pyrazin-2-yl)-vinyl]-7-trifluoromethyl-quinoline]
52 | Cc1ncc(C)n2nc(CCc3ccc4ccc(Cl)cc4n3)nc12 [7-Chloro-2-[2-(5,8-dimethyl-[1,2,4]triazolo[1,5-a]pyrazin-2-yl)-ethyl]-quinoline]
290 | Cc1cc(Cl)c2nc(CCc3nc4c(C)ncc(C)n4n3)ccc2c1 [8-Chloro-2-[2-(5,8-dimethyl-[1,2,4]triazolo[1,5-a]pyrazin-2-yl)-ethyl]-6-methyl-quinoline]
35 | COc1cc(CCc2nc3c(OC)ccc(C)n3n2)nc2ccccc12 [4-Methoxy-2-[2-(8-methoxy-5-methyl-[1,2,4]triazolo[1,5-a]pyridin-2-yl)-ethyl]-quinoline]
520 | Cc1ncc(C)n2nc(CCc3ccc4cc5c(cc4n3)OC(F)(F)O5)nc12 [6-[2-(5,8-Dimethyl-[1,2,4]triazolo[1,5-a]pyrazin-2-yl)-ethyl]-2,2-difluoro-[1,3]dioxolo[4,5-g]quinoline]
13 | COc1ccc2ccc(/C=C/c3nc4c(C)ncc(C)n4n3)nc2c1 [2-[(E)-2-(5,8-Dimethyl-[1,2,4]triazolo[1,5-a]pyrazin-2-yl)-vinyl]-7-methoxy-quinoline]
4 | Cc1ncc(C)n2nc(CCc3ccc4cc5c(cc4n3)OCCO5)nc12 [7-[2-(5,8-Dimethyl-[1,2,4]triazolo[1,5-a]pyrazin-2-yl)-ethyl]-2,3-dihydro-[1,4]dioxino[2,3-g]quinoline]

More lines, now with the values behind:

Compound | IC50 [nM]
COc1cccc2nc(/C=C/c3nc4c(C)ncc(C)n4n3)ccc12 [2-[(E)-2-(5,8-Dimethyl-[1,2,4]triazolo[1,5-a]pyrazin-2-yl)-vinyl]-5-methoxy-quinoline] | 19
Cc1ncc(C)n2nc(CCc3ccc4cc(F)cc(F)c4n3)nc12 [2-[2-(5,8-Dimethyl-[1,2,4]triazolo[1,5-a]pyrazin-2-yl)-ethyl]-6,8-difluoro-quinoline] | 300
Cc1cc(F)cc2ccc(CCc3nc4c(C)ncc(C)n4n3)nc12 [2-[2-(5,8-Dimethyl-[1,2,4]triazolo[1,5-a]pyrazin-2-yl)-ethyl]-6-fluoro-8-methyl-quinoline] | 2000
Cc1ncc(C)n2nc(/C=C/c3ccc4cc(F)ccc4n3)nc12 [2-[(E)-2-(5,8-Dimethyl-[1,2,4]triazolo[1,5-a]pyrazin-2-yl)-vinyl]-6-fluoro-quinoline] | 190
Cc1ncc(C)n2nc(CCc3ccc4ccc(C(F)(F)F)cc4n3)nc12 [2-[2-(5,8-Dimethyl-[1,2,4]triazolo[1,5-a]pyrazin-2-yl)-ethyl]-7-trifluoromethyl-quinoline] | 240
COc1ccc(C)n2nc(CCc3cc(C)c4ccccc4n3)nc12 [2-[2-(8-Methoxy-5-methyl-[1,2,4]triazolo[1,5-a]pyridin-2-yl)-ethyl]-4-methyl-quinoline] | 42
Cc1ncc(C)n2nc(CCc3ccc4c(F)cccc4n3)nc12 [2-[2-(5,8-Dimethyl-[1,2,4]triazolo[1,5-a]pyrazin-2-yl)-ethyl]-5-fluoro-quinoline] | 120
Cc1ncc(C)n2nc(CCc3ccc4c(F)cc(F)cc4n3)nc12 [2-[2-(5,8-Dimethyl-[1,2,4]triazolo[1,5-a]pyrazin-2-yl)-ethyl]-5,7-difluoro-quinoline] | 110
Cc1ncc(C)n2nc(CCc3cc(O)c4cc(F)ccc4n3)nc12 [2-[2-(5,8-Dimethyl-[1,2,4]triazolo[1,5-a]pyrazin-2-yl)-ethyl]-6-fluoro-quinolin-4-ol] | 410
COc1cc(CCc2nc3c(C)ncc(C)n3n2)nc2ccc(F)cc12 [2-[2-(5,8-Dimethyl-[1,2,4]triazolo[1,5-a]pyrazin-2-yl)-ethyl]-6-fluoro-4-methoxy-quinoline] | 14
CCc1ccc(C)n2nc(CCc3ccc4cc(F)ccc4n3)nc12 [2-[2-(8-Ethyl-5-methyl-[1,2,4]triazolo[1,5-a]pyridin-2-yl)-ethyl]-6-fluoro-quinoline] | 25
COc1cc(CCc2nc3c(C)ncc(C)n3n2)nc2ccccc12 [2-[2-(5,8-Dimethyl-[1,2,4]triazolo[1,5-a]pyrazin-2-yl)-ethyl]-4-methoxy-quinoline] | 12
COc1cc(CCc2nc3c(C)ncc(C)n3n2)nc2cc(F)ccc12 [2-[2-(5,8-Dimethyl-[1,2,4]triazolo[1,5-a]pyrazin-2-yl)-ethyl]-7-fluoro-4-methoxy-quinoline] | 26
Cc1cc(C)n2cc(CCc3ccc4ccccc4n3)nc2n1 [2-[2-(5,7-Dimethyl-imidazo[1,2-a]pyrimidin-2-yl)-ethyl]-quinoline] | 310
Cc1ncc(C)n2nc(CCc3cc(F)c4ccccc4n3)nc12 [2-[2-(5,8-Dimethyl-[1,2,4]triazolo[1,5-a]pyrazin-2-yl)-ethyl]-4-fluoro-quinoline] | 28
Cc1ncc(C)n2nc(/C=C/c3ccc4cc(C#N)ccc4n3)nc12 [2-[(E)-2-(5,8-Dimethyl-[1,2,4]triazolo[1,5-a]pyrazin-2-yl)-vinyl]-6-cyano-quinoline] | 2100
Cc1ncc(C)n2nc(CCc3ccc4ccccc4n3)nc12 [2-[2-(5,8-Dimethyl-[1,2,4]triazolo[1,5-a]pyrazin-2-yl)-ethyl]-quinoline] | 19
Cc1cc(C)n2cc(/C=C/c3ccc4ccccc4n3)nc2n1 [2-[(E)-2-(5,7-Dimethyl-imidazo[1,2-a]pyrimidin-2-yl)-vinyl]-quinoline] | 320
Cc1cc(CCc2nc3c(C)ncc(C)n3n2)nc2ccccc12 [2-[2-(5,8-Dimethyl-[1,2,4]triazolo[1,5-a]pyrazin-2-yl)-ethyl]-4-methyl-quinoline] | 18
Cc1cnc(C)n2nc(CCc3ccc4cc(C(C)C)ccc4n3)nc12 [2-[2-(5,8-Dimethyl-[1,2,4]triazolo[1,5-c]pyrimidin-2-yl)-ethyl]-6-isopropyl-quinoline] | 61
Cc1ncc(C)n2nc(/C=C/c3ccc4cc(OC(F)(F)F)ccc4n3)nc12 [2-[(E)-2-(5,8-Dimethyl-[1,2,4]triazolo[1,5-a]pyrazin-2-yl)-vinyl]-6-trifluoromethoxy-quinoline] | 2800
Cc1ccc(O)c2nc(CCc3ccc4cc(F)ccc4n3)nn12 [2-[2-(6-Fluoro-quinolin-2-yl)-ethyl]-5-methyl-[1,2,4]triazolo[1,5-a]pyridin-8-ol] | 85
Cc1cc2nc(CCc3nc4c(C)ncc(C)n4n3)ccc2cc1F [2-[2-(5,8-Dimethyl-[1,2,4]triazolo[1,5-a]pyrazin-2-yl)-ethyl]-6-fluoro-7-methyl-quinoline] | 8.8
